ChEMBL document CHEMBL5512695, “Discovery of N-Substituted Acetamide Derivatives as Promising P2Y14R Antagonists Using Molecular Hybridization Based on Crystallographic Overlay” (J Med Chem, 2024)
One block for each molecule: values may come before it.

What was measured:
[1] = biological target: T1, P2Y purinoceptor 14 (Homo sapiens) (UniProt Q15391); conditions: time 30.0 min
T1 sequence (whole entry): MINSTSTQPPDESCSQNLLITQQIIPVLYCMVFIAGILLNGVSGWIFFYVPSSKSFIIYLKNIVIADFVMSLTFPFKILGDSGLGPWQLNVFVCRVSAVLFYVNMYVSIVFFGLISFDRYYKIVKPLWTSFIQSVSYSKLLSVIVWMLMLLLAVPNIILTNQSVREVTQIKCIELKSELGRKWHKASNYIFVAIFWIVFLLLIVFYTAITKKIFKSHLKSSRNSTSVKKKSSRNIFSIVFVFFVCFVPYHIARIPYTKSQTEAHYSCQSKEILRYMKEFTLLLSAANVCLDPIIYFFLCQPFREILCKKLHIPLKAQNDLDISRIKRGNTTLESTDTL

[2] = Cmax in SD […] at 10 mg/kg, iv measured for 24 hrs; type: ADME, organism-based; conditions: in vivo
P2Y purinoceptor 12 = P2Y purinoceptor 12 (Homo sapiens, UniProt Q9H244); assay: Inhibition of human P2Y12R stably expressed in 2-MeSADP -stimulated HEK293 cells incubated for 0.5 hrs by cAMP production assay; type: functional, cell-based
[3] = AUC (0 to 24 hrs) in SD […] at 10 mg/kg, iv; type: ADME, organism-based; conditions: in vivo
Cytochrome P450 1A2 = biological target: T2, Cytochrome P450 1A2 (Homo sapiens, UniProt P05177); assay: Inhibition of CYP1A2 in human liver microsomes using phenacetin as substrate preincubated for 10 mins followed by substrate addition measured after 30 mins by LC/MS analysis; type: ADME, Microsome
T2 sequence (P05177 whole entry): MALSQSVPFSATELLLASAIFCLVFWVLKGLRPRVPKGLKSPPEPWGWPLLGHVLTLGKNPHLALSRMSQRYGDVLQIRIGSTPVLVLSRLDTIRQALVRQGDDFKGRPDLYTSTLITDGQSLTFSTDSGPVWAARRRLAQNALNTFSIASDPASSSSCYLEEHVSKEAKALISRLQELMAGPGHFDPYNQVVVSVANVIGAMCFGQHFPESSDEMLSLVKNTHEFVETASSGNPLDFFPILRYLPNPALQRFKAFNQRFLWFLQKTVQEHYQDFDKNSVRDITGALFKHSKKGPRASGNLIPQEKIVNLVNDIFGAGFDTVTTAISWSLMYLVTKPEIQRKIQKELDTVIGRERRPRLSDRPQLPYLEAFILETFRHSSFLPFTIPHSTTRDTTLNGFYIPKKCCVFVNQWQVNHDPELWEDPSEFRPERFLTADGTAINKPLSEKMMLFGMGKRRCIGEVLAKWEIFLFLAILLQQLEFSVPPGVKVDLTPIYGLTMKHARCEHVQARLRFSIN

[4] = Stability in SIF assessed as half life; type: ADME
[5] = Clearance in SD […] at 20 mg/kg, po measured for 24 hrs; type: ADME, organism-based; conditions: in vivo
[6] = Oral bioavailability in SD […] at 20 mg/kg measured for 24 hrs; type: ADME, organism-based; conditions: in vivo
[7] = Stability in human liver microsomes assessed as half life measured for 45 mins by LC-MS/MS analysis; type: ADME, Microsome
[8] = AUC (0 to 24 hrs) in SD […] at 20 mg/kg, po; type: ADME, organism-based; conditions: in vivo
HUVEC = assay: Cytotoxicity against MSU/LPS-stimulated HUVEC cells assessed as decrease in cell viability at 256 uM incubated for 24 hrs by SRB assay; type: toxicity, cell-based; conditions: human
Cytochrome P450 2C9 = Cytochrome P450 2C9 (Homo sapiens, UniProt P11712); assay: Inhibition of CYP2C9 in human liver microsomes using diclofenac as substrate preincubated for 10 mins followed by substrate addition measured after 30 mins by LC/MS analysis; type: ADME, Microsome
[9] = Tmax in SD […] at 10 mg/kg, iv measured for 24 hrs; type: ADME, organism-based; conditions: in vivo
[10] = Clearance in SD […] at 10 mg/kg, iv measured for 24 hrs; type: ADME, organism-based; conditions: in vivo
[11] = Stability in SGF assessed as half life; type: ADME
Cytochrome P450 2D6 = Cytochrome P450 2D6 (Homo sapiens, UniProt P10635); assay: Inhibition of CYP2D6 in human liver microsomes using dextromethorphan as substrate preincubated for 10 mins followed by substrate addition measured after 30 mins by LC/MS analysis; type: ADME, Microsome
[12] = Cmax in SD […] at 20 mg/kg, po measured for 24 hrs; type: ADME, organism-based; conditions: in vivo
[13] = Half life in SD […] at 10 mg/kg, iv measured for 24 hrs; type: ADME, organism-based; conditions: in vivo
[14] = biological target: Voltage-gated inwardly rectifying potassium channel KCNH2 (Homo sapiens, UniProt Q12809); assay: Inhibition of hERG expressed in HEK293 by whole cell Q-patch analysis; type: toxicity, cell-based
Cytochrome P450 2C19 = Cytochrome P450 2C19 (Homo sapiens, UniProt P33261); assay: Inhibition of CYP2C19 in human liver microsomes using S-mephenytoin as substrate preincubated for 10 mins followed by substrate addition measured after 30 mins by LC/MS analysis; type: ADME, Microsome
HEK-293T = assay: Cytotoxicity against MSU/LPS-stimulated HEK293T cells assessed as decrease in cell viability at 256 uM incubated for 24 hrs by SRB assay; type: toxicity, cell-based; conditions: human
[15] = Half life in SD […] at 20 mg/kg, po measured for 24 hrs; type: ADME, organism-based; conditions: in vivo
P2Y purinoceptor 6 = P2Y purinoceptor 6 (Homo sapiens, UniProt Q15077); assay: Inhibition of human P2Y6R stably expressed in UDP-stimulated HEK293 cells incubated for 0.5 hrs by IP3 production assay; type: functional, cell-based
[16] = Tmax in SD […] at 20 mg/kg, po measured for 24 hrs; type: ADME, organism-based; conditions: in vivo
Cytochrome P450 3A4 = Cytochrome P450 3A4 (Homo sapiens, UniProt P08684); assay: Inhibition of CYP3A4 in human liver microsomes using midazolam as substrate preincubated for 10 mins followed by substrate addition measured after 30 mins by LC/MS analysis; type: ADME, Microsome
P2Y purinoceptor 14 = biological target: T3, P2Y purinoceptor 14 (Homo sapiens, UniProt Q15391); assay: Antagonist activity at human P2Y14R stably expressed in HEK293 cells assessed as inhibition of forskolin-[…] cAMP production incubated for 30 mins by cAMP-Glo assay; type: functional, cell-based
T3 sequence (Q15391 whole entry): T1 sequence (whole entry)

[17] = HEK293, filed as antagonist, dose 100.0 nM

Sequence of Cytochrome P450 2C19 (P33261 whole entry): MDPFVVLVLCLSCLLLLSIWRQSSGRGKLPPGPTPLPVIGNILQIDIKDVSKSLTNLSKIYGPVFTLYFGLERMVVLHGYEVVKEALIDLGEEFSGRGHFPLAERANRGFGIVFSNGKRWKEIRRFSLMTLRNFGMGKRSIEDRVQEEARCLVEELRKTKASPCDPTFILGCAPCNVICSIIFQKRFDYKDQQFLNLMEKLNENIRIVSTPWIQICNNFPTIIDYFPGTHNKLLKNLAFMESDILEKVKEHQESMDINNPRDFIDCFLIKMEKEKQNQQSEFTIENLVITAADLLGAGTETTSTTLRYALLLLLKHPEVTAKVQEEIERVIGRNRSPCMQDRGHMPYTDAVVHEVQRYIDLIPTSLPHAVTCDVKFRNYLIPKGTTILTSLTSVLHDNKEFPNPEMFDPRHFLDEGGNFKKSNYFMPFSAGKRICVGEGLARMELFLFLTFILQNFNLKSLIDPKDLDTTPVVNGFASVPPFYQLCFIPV
Sequence of P2Y purinoceptor 6 (Q15077 whole entry): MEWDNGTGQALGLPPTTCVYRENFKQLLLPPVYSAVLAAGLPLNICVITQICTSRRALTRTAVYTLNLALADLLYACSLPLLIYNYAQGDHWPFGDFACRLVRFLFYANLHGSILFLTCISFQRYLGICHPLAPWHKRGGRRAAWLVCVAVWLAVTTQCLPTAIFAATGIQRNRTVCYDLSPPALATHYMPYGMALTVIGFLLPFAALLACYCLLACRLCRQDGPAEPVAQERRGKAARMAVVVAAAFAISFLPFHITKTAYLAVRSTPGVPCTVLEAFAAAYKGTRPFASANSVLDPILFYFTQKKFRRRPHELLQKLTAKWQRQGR
Sequence of Voltage-gated inwardly rectifying potassium channel KCNH2 (Q12809 whole entry): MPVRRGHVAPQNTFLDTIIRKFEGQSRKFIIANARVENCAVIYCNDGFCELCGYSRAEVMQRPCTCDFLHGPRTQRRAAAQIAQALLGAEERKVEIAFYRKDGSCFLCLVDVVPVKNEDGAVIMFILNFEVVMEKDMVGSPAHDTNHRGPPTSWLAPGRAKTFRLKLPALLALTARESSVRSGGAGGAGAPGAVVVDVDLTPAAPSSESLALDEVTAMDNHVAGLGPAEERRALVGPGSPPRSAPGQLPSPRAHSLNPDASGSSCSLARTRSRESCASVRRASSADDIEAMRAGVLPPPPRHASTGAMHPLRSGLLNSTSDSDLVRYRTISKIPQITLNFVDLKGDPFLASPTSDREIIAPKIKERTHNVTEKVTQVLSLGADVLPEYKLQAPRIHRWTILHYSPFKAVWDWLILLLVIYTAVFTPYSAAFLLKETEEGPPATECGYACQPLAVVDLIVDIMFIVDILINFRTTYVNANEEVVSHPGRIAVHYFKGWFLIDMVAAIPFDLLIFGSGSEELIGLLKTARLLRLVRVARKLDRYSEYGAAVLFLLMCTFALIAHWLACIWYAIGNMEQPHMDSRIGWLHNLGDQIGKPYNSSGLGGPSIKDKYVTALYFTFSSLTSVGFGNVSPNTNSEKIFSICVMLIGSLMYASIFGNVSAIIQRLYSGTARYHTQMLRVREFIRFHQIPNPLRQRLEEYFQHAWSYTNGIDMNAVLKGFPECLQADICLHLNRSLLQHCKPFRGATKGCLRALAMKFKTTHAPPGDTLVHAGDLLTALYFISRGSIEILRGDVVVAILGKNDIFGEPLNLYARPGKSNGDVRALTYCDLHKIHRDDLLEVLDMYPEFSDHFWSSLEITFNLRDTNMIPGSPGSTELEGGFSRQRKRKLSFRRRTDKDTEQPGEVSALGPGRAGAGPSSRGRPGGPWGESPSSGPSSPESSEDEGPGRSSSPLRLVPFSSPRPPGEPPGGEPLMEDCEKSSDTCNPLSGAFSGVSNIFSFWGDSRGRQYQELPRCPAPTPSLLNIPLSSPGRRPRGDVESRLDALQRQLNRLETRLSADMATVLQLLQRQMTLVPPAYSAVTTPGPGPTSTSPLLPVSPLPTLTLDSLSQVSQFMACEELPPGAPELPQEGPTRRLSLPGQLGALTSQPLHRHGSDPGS
Sequence of Cytochrome P450 2D6 (P10635 whole entry): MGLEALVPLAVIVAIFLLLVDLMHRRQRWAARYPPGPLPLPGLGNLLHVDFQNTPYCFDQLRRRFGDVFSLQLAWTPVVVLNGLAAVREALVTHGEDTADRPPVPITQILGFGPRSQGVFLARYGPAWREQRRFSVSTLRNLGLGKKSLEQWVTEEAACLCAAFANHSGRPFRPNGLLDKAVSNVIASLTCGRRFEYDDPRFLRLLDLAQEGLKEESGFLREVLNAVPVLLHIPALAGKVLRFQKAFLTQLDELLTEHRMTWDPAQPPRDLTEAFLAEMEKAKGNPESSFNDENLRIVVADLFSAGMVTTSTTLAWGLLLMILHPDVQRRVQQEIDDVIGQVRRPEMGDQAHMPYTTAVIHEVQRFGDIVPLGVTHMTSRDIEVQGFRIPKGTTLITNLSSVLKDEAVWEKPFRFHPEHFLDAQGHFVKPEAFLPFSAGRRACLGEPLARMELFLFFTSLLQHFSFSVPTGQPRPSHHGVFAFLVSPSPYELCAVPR
Sequence of Cytochrome P450 3A4 (P08684 whole entry): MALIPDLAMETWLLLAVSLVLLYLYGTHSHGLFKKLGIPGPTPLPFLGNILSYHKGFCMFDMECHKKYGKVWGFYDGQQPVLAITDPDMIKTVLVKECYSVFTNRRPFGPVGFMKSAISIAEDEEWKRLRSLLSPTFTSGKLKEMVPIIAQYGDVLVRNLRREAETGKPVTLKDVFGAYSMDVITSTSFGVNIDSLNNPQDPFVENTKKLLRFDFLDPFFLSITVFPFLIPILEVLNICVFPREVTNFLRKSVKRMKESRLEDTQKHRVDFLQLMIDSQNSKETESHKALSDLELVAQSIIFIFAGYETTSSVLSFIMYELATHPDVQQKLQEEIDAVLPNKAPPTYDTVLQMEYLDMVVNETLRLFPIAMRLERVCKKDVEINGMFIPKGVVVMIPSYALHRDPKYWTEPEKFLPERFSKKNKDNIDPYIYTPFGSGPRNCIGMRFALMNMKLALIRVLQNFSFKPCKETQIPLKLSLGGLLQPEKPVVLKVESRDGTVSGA
Sequence of Cytochrome P450 2C9 (P11712 whole entry): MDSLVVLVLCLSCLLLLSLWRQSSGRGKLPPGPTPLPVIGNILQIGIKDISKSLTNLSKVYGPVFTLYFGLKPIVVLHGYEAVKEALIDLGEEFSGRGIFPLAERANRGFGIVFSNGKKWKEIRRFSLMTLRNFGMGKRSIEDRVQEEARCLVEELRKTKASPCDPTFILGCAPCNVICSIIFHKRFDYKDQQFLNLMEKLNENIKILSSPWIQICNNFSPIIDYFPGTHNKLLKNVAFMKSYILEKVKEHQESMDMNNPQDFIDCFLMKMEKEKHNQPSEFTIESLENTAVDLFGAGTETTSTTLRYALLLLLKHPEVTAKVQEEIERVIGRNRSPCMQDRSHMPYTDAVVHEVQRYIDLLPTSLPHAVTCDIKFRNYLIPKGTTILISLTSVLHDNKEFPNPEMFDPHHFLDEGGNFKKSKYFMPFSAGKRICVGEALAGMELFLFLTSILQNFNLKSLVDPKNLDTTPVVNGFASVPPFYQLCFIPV
Sequence of P2Y purinoceptor 12 (Q9H244 whole entry): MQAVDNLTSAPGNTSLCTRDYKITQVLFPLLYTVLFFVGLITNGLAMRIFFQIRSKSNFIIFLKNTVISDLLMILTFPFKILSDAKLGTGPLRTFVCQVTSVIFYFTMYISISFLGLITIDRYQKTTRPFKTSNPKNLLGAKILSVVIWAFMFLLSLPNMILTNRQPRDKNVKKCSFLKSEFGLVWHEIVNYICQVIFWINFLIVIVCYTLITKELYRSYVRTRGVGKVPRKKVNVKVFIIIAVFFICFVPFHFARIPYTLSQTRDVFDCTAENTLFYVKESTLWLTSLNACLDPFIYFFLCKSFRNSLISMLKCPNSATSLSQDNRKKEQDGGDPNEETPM

- inhibition ([1]; HEK293, dose 100.0 nM): 11.3%
SMILES: Cc1ccc(OCC(=O)Nc2ccc3cn[nH]c3c2)cc1

- inhibition ([1]; HEK293, dose 100.0 nM): 10.2%
SMILES: COc1ccc(OCC(=O)Nc2ccc3nc[nH]c3c2)cc1

- inhibition ([1]; HEK293, dose 100.0 nM): 38.3%
SMILES: O=C(COc1ccc(C(F)(F)F)cc1)Nc1ccc2cccnc2c1

- inhibition [1, 17]: 41.3%
SMILES: Cc1ccc(OCC(=O)Nc2ccc3sccc3c2)cc1

- inhibition ([1]; HEK293, dose 100.0 nM): 32%
SMILES: Cc1ccc(OCC(=O)Nc2ccc3ncoc3c2)cc1

- inhibition ([1]; HEK293, dose 100.0 nM): 21.8%
SMILES: CC(C)c1ccc(OCC(=O)Nc2ccc3nc[nH]c3c2)cc1

- Cmax [2]: 1530 ng/mL
- IC50 (P2Y purinoceptor 12): > 100 µM
- AUC [3]: 1765 µg/L/h
- IC50 (Cytochrome P450 1A2): > 50 µM
- half-life [4]: > 5 h
- CL/F [5]: 14.8 mL/min/kg
- bioavailability [6]: 75%
- half-life [7]: 3.27 h
- AUC [8]: 2845 µg/L/h
- IC50 (Cytochrome P450 2C9): > 50 µM
- Tmax [9]: 0.3 h
- clearance [10]: 3.5 mL/min/kg
- half-life [11]: > 50 h
- IC50 (Cytochrome P450 2D6): > 50 µM
- Cmax [12]: 2900 ng/mL
- half-life [13]: 7.6 h
- IC50 (Cytochrome P450 2C19): > 50 µM
- half-life [15]: 12.6 h
- IC50 (P2Y purinoceptor 6): 89.7 µM
- Tmax [16]: 0.533 h
- IC50 (Cytochrome P450 3A4): 19.6 µM
SMILES: O=C(COc1ccc(Br)cc1)Nc1ccc2nc[nH]c2c1
- Activity (HUVEC): Non-Toxic
- IC50 [14]: > 50 µM
- Activity (HEK-293T): Non-Toxic

- inhibition ([1]; HEK293, dose 100.0 nM): 12.1%
SMILES: O=C(COc1ccc(Cl)cc1)Nc1ccc2cccnc2c1

- inhibition [1, 17]: 95.2%
- IC50 (P2Y purinoceptor 14): 0.0013 µM
SMILES: O=Cc1ccc(OCC(=O)Nc2ccc3nc[nH]c3c2)cc1

- inhibition ([1]; HEK293, dose 100.0 nM): 15.2%
SMILES: O=C(COc1ccc(Br)cc1)Nc1ccc2cccnc2c1

- inhibition [1, 17]: 48.3%
SMILES: Cc1ccc(OCC(=O)Nc2ccc3cc[nH]c3c2)cc1

- inhibition ([1]; HEK293, dose 100.0 nM): 17.9%
SMILES: Cc1ccc(OCC(=O)Nc2ccc3ncsc3c2)cc1

- inhibition ([1]; HEK293, dose 100.0 nM): 17.6%
SMILES: O=Cc1ccc(OCC(=O)Nc2ccc3cccnc3c2)cc1

- inhibition ([1]; HEK293, dose 100.0 nM): 16.3%
SMILES: O=C(COc1ccc(CO)cc1)Nc1ccc2cccnc2c1
